Molecules are shown by their SMILES.

The experiment addresses T1, EDG-1/S1P1 receptor (Homo sapiens, UniProt P21453).
T1 construct: expressed in transfected cells; host or cells: human osteogenic sarcoma U2OS cells (EDG-1 Transfluor U2OS WT Clone #37)
Put plainly: In vitro cell based receptor activation assay - Transfluor assay. Particulars: EDG-1 Transfluor U2OS WT Clone #37 cells; beta-arrestin GFP relocalization; 375 nM or 750 nM S1P ligand. From the text:
A. In Vitro Cell Based Receptor Activation Assay-Transfluor Assay
This cell-based assay was designed to assess the ability of small molecule antagonists to inhibit activation of the GPCR S1P1 in the presence of its cognate ligand S1P. The assay used technology initially developed by Norak Biosciences (Xsira Pharmaceutical) and presently owned by Molecular Devices. A human osteogenic sarcoma (U2OS) cell line overexpressing the EDG-1/S1P1) receptor as well as a beta-arrestin/green fluorescent protein (GFP) construct hereafter termed EDG-1 Transfluor U2OS WT Clone #37 was employed.
Using a high content screening approach (Cellomics Arrayscan), receptor activity was measured by assessment of the relocalization of beta-arrestin GFP in response to stimulation of EDG-1 by S1P. Specifically, EDG-1 Transfluor U2OS WT Clone #37 cells were plated at a density of 6250 cells in 40 uL medium per well in 384 well plastic bottomed microtiter plates (BD Falcon) and incubated overnight at 37° C./5% CO2. Prior to screening, compounds were dissolved in 100% dimethyl sulfoxide (DMSO) to a final stock concentration of 10 mM. […] Plates were then sealed and analysed on the Cellomics Arrayscan using the GPCR signalling algorithm. EC50 values were then calculated using IDBS ActivityBase software.

T1 sequence (P21453 whole entry): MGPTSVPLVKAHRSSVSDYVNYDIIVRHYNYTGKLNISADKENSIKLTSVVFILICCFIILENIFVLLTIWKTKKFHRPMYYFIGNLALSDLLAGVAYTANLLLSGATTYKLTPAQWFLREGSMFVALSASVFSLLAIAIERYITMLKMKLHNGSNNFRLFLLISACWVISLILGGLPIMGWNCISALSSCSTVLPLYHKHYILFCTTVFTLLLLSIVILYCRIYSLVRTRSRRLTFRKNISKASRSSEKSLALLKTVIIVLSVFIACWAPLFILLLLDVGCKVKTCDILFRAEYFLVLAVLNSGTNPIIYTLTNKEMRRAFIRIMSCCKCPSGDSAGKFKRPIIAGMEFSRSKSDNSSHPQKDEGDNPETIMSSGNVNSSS

In the case of `CCc1c(C(C)NS(=O)(=O)c2ccc(Cl)cc2)n[nH]c1C` (stereo not shown) [Example 1], the EC50 (usually the concentration giving half of the maximal effect) was determined as 680 nM.

These data come from patent US20090111860A1, “SULFONAMIDE COMPOUNDS USEFUL AS ADG RECEPTOR MODULATORS” (ASTRAZENECA AB, priority 2006, published 2009).
